A short description of data set [1]: pKa used to separate acids by titration. The data set is classed as physicochemical. As to the method:
4-(2,3-Dimethoxyphenyl)but-3-enoic acid (5). Recrystallized paraconic acid 4 (8.6 g, 0.032 mol) was placed into a one-neck round bottom flask and the solid was heated in a 180° C. oil bath for 6 h. Carbon dioxide could be observed bubbling out of the dark brown liquid. The reaction was cooled to room temperature and dissolved in CH2Cl2. The product and any unreacted starting material were extracted into 2 N NaOH (3×100 mL). The pKa of the butenoic acid is approximately 4.2, whereas the pKa of the paraconic acid is approximately 3.6, so the two compounds were separated by titration. The basic aqueous extract was carefully acidified with 2 N HCl, with monitoring by a calibrated pH meter. Once the pH reached 4.5, the solution started becoming slightly cloudy. The solution pH was adjusted to 4.0 and the aqueous solution was extracted with CH2Cl2. After extraction the pH of the aqueous layer increased to around 5 and the titration was repeated until there was no cloudiness at pH 4.0. The starting material was recovered by acidifying to pH 3.0 and extracting with CH2Cl2. The initial organic extracts were dried over Na2SO4, and evaporated under reduced pressure to yield pure 5 that solidified under reduced pressure as a yellow solid (4.7 g, 0.021 mol, 65.2%) that was used without further purification; mp 84-86° C. […]

For another data set, the target named is D2-like receptor sites (Sus scrofa, UniProt A0ACM8QMZ9). The data set can be described thus: Competitive binding, porcine striatal tissue, [3H]-spiperone (50 nM ketanserine present). The note with it: porcine striatal membranes; read-out: Kd for D2-like receptor sites (receptor isotherm).
The next data set concerns the target D1 receptor (Homo sapiens, UniProt P21728). The note with it: reported; cited from earlier work.
In a further data set the target is D2 receptor (Homo sapiens, UniProt P14416). The note with it: reported; cited from earlier work.
The conditions of data set [2]: rodents and non-human primates; iv, sc, po; cited from earlier work.

A word on the pKa: it is the negative logarithm of the acid dissociation constant. High values mean a weaker acid or stronger base, low ones a stronger acid or weaker base. The melting point is the temperature of the solid-liquid transition. As usually defined, the Kd is a measure of binding affinity in units of concentration.

Chain of D2 receptor (P14416 whole entry): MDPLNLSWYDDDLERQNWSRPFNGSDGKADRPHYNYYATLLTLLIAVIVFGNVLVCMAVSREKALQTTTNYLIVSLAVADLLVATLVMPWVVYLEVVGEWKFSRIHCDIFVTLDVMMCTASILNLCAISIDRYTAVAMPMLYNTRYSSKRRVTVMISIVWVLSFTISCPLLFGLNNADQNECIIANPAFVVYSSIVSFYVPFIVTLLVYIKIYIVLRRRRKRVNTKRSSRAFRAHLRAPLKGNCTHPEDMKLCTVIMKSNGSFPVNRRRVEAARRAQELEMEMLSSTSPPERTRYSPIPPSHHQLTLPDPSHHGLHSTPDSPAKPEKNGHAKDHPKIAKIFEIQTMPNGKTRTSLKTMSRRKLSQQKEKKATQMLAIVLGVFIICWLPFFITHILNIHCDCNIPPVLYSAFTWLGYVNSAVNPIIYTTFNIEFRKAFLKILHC
Chain of D1 receptor (P21728 whole entry): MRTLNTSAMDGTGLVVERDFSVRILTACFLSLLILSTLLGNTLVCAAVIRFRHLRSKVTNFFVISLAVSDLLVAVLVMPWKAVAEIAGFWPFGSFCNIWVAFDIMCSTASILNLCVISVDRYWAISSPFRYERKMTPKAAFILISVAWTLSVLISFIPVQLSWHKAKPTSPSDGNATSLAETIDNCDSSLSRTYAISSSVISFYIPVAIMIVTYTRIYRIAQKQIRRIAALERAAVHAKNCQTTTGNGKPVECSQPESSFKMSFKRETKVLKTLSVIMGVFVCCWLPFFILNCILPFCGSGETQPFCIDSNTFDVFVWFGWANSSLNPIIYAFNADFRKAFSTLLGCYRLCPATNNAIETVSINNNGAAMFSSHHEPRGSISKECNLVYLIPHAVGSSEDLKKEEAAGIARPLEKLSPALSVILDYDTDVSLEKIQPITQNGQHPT
Chain of D2-like receptor sites (A0ACM8QMZ9 entry or part of it): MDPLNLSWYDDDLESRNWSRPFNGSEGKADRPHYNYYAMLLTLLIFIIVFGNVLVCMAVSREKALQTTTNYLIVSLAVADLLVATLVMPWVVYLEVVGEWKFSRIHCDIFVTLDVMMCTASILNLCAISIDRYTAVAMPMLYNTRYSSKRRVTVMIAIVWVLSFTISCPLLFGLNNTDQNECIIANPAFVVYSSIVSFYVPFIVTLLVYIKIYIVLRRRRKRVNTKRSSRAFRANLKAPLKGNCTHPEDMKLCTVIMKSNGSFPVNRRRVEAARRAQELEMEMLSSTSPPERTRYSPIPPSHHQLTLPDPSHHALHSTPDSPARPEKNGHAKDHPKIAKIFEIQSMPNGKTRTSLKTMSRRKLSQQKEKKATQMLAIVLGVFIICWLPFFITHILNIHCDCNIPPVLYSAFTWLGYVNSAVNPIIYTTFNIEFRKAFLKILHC
Protocol for D2-like receptor sites: Competitive Binding Experiments. Porcine striatal tissue is obtained from the Purdue Butcher Block and prepared as described in the literature. Striatal tissue is homogenized using a potter-type homogenizer, suspended in homogenization buffer (20 mM Hepes, 0.32 M sucrose, pH 7.4), and spun at 1,000 g for 10 minutes at 4° C. The pellet (P1) is discarded and supernatant is centrifuged at 30,000 g for 10 minutes at 4° C. The resultant pellet (P2) is resuspended in 50 mM Tris buffer (pH 7.4) by briefly using a Kinematica homogenizer, and then centrifuged at 30,000 g for 30 minutes at 4° C. This pellet is resuspended again in 50 mM Tris buffer, dispensed into 1 mL aliquots, and centrifuged for 10 min. at 13,000 g at 4° C. A BSA protein assay is used to determine the final weight of the pellets. Supernatant is aspirated and pellets are frozen at −80° C. until use.
Receptor and competitive binding experiments are performed as described in the literature. Pellets are resuspended (1 mL/mg) in receptor binding buffer (50 mM Hepes, 4 mM MgCl2, pH 7.4) and 75 μg protein is used per well. […] All binding experiments are incubated for 30 minutes at 37° C., and are terminated and counted in a similar fashion to the cAMP binding assays.
Data Analysis. […] Ki values are calculated from IC50 using the Cheng-Prusoff equation.

`COc1cccc(C=CCC(=O)O)c1OC` [Compound 5, 4-(2,3-Dimethoxyphenyl)but-3-enoic acid] returned a pKa in data set [1] of approximately 4.2.
The compound `Br.Oc1ccc2c(c1O)CC[C@H]1CCNC[C@H]21` (relative stereo) [Compound 2, Trans-1,2,3,4,4a,5,6,10b-octahydrobenzo[h]isoquinoline-7,8-diol HBr] showed a melting point of more than 250 °C.
For `O=C(CCCN1CCC2(CC1)C(=O)NCN2c1ccccc1)c1ccc(F)cc1` [[3H]-spiperone], at D2-like receptor sites, the Kd turned out to be 0.075 nM.
Take `COc1cccc(C2OC(=O)CC2C(=O)O)c1OC` (centres unmarked) [Compound 4, 2-(2,3-Dimethoxyphenyl)-5-oxo-tetrahydrofuran-3-carboxylic acid]: the pKa in data set [1] is approximately 3.6.
`Br.Oc1ccc2c(c1O)CC(c1ccccc1)C1CCNCC21` (centres unmarked) [Compound 3, 5-Phenyl-1,2,3,4,4a,5,6,10b-octahydrobenzo[h]isoquinoline-7,8-diol HBr] yielded a melting point of more than 250 °C.
For the compound `Cl.Oc1cc2c(cc1O)[C@@H]1c3ccccc3CN[C@H]1CC2` (racemic) [dihydrexidine, (±)-trans-10,11-dihydroxy-5,6,6a,7,8,12b-hexahydrobenzo[a]phenanthridine hydrochloride], the “affinity for the D1 receptor” value at D1 receptor is 2.2 nM. Also, the “affinity for the D2 receptor” value at D2 receptor is 183 nM. Also, the plasma clearance result in data set [2] is reported as “cleared rapidly from plasma”.

The record behind these values is patent US9359303B2, “Octahydrobenzoisoquinoline modulators of dopamine receptors and uses therefor” (Purdue Research Foundation, priority 2009, dated 2016).
